Tests used:
giant foxtail = test: Test A preemergence; assay type: in vivo, Setaria faberii; details: for Plant response rating, Foxtail, Giant: 125 g ai/ha; for Foxtail, Giant plant response rating: 500 g ai/ha
Procedure, shortened: (§1)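 Visual 0–100 rating (100 = complete control) taken about 10 d post-treatment relative to untreated checks. Preemergence: directed soil spray on sown loam/sand pots. Postemergence: seedlings 2–10 cm, 1–2 leaf. Non-phytotoxic solvent formulation with surfactant.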

pigweed = test: Test A postemergence; assay type: in vivo, Amaranthus retroflexus; details: 0 to 100 scale where 0 is no effect and 100 is complete control
Procedure, shortened: as §1

Heteranthera limosa = test: Test B flooded paddy test; assay type: in vivo; details: Flood, 250 g ai/ha; 0 to 100 scale where 0 is no effect and 100 is complete control
Procedure, shortened: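 Seedlings are raised to two leaves, flooded to a depth of 3 cm and dosed by adding the compound to the floodwater. Water level is kept constant, and plants are scored visually versus controls 13–15 days later (0 = no effect, 100 = complete control).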

Italian ryegrass = test: Test C preemergence; assay type: in vivo, Lolium multiflorum; details: for Ryegrass, Italian plant response rating: preemergence; for Plant response rating, Ryegrass, Italian: Preemergence, 31 g ai/ha, scale 0 to 100, 0 no effect, 100 complete control
Procedure, shortened: (§2)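 Seeds are planted in blended loam soil and sand and treated preemergence, while seedlings in a peat moss/vermiculite medium receive postemergence sprays at 2 to 18 cm height. All plants stay in the greenhouse for 13 to 15 days before visual comparison with controls on a 0–100 scale.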

galium = test: Test C preemergence; assay type: in vivo, Galium aparine; details: for Galium plant response rating: preemergence; for Plant response rating, Galium: Preemergence, 31 g ai/ha, scale 0 to 100, 0 no effect, 100 complete control
Procedure, shortened: as §2

johnsongrass = test: Test C preemergence; assay type: in vivo, Sorghum halepense; details: for Johnsongrass plant response rating: preemergence; for Plant response rating, Johnsongrass: Preemergence, 31 g ai/ha, scale 0 to 100, 0 no effect, 100 complete control
Procedure, shortened: as §2

morningglory = test: Test C preemergence; assay type: in vivo, Ipomoea coccinea; details: for Morningglory plant response rating: preemergence; for Plant response rating, Morningglory: Preemergence, 31 g ai/ha, scale 0 to 100, 0 no effect, 100 complete control
Procedure, shortened: as §2

oilseed rape = test: Test C preemergence; assay type: in vivo, Brassica napus; details: for Oilseed Rape plant response rating: preemergence; for Plant response rating, Oilseed Rape: Preemergence, 31 g ai/ha, scale 0 to 100, 0 no effect, 100 complete control
Procedure, shortened: as §2

velvetleaf = test: Test C preemergence; assay type: in vivo, Abutilon theophrasti; details: for Velvetleaf plant response rating: preemergence; for Plant response rating, Velvetleaf: Preemergence, 31 g ai/ha, scale 0 to 100, 0 no effect, 100 complete control
Procedure, shortened: as §2

wheat, winter = test: Test C postemergence; assay type: in vivo, Triticum aestivum; details: for Plant response rating, Wheat: scale 0 to 100 (0 no effect, 100 complete control)
Procedure, shortened: as §2

corn = test: Test C postemergence; assay type: in vivo, Zea mays
Procedure, shortened: as §2

large (Lg) crabgrass = test: Test C postemergence; assay type: in vivo, Digitaria sanguinalis
Procedure, shortened: as §2

chickweed = test: Test C postemergence; assay type: in vivo, Stellaria media
Procedure, shortened: as §2

[1] = 0 to 100 scale where 0 is no effect and 100 is complete control
[2] = 16 g ai/ha, scale 0 to 100 (0 no effect, 100 complete control)
[3] = 62 g ai/ha, scale 0 (no effect) to 100 (complete control)
[4] = 125 g ai/ha, scale 0 (no effect) to 100 (complete control)
[5] = 16 g ai/ha, postemergence, visual rating, scale 0 to 100 (0 no effect, 100 complete control), 13 to 15 days
[6] = Postemergence, 31 g ai/ha, scale 0 to 100 (0 no effect, 100 complete control), 13 to 15 days
[7] = Postemergence, 62 g ai/ha, scale 0 to 100 (0 no effect, 100 complete control)
[8] = 16 g ai/ha, postemergence, 0 is no effect, 100 is complete control
[9] = 125 g ai/ha, postemergence, visual rating, scale 0 to 100 (0 no effect, 100 complete control)

CCOc1cnn(-c2c(C#N)cccc2Oc2ncc(F)cn2)c1 [Compound 89]
Plant response rating, Foxtail, Giant (giant foxtail; [1]): 90
Foxtail, Giant plant response rating (giant foxtail; 0 to 100 scale, 0 no effect, 100 complete control, approx. 10 days): 90
Plant response rating, Pigweed (pigweed; 125 g ai/ha): 90
Plant response rating, Pigweed (pigweed; 500 g ai/ha): 100
Plant response rating, Ducksalad (Heteranthera limosa): 95
Ryegrass, Italian plant response rating (Italian ryegrass; [2]): 0
Ryegrass, Italian plant response rating (Italian ryegrass; [3]): 45
Ryegrass, Italian plant response rating (Italian ryegrass; [4]): 50
Plant response rating, Ryegrass, Italian (Italian ryegrass): 5
Galium plant response rating (galium; [2]): 30
Galium plant response rating (galium; [3]): 85
Galium plant response rating (galium; [4]): 100
Plant response rating, Galium (galium): 100
Johnsongrass plant response rating (johnsongrass; [2]): 0
Johnsongrass plant response rating (johnsongrass; [3]): 20
Johnsongrass plant response rating (johnsongrass; [4]): 75
Plant response rating, Johnsongrass (johnsongrass): 0
Morningglory plant response rating (morningglory; [2]): 45
Morningglory plant response rating (morningglory; [3]): 95
Morningglory plant response rating (morningglory; [4]): 98
Plant response rating, Morningglory (morningglory): 35
Oilseed Rape plant response rating (oilseed rape; [2]): 80
Oilseed Rape plant response rating (oilseed rape; [3]): 95
Oilseed Rape plant response rating (oilseed rape; [4]): 98
Plant response rating, Oilseed Rape (oilseed rape): 80
Velvetleaf plant response rating (velvetleaf; [2]): 20
Velvetleaf plant response rating (velvetleaf; [3]): 100
Velvetleaf plant response rating (velvetleaf; [4]): 100
Plant response rating, Velvetleaf (velvetleaf): 70
Plant response rating (0 to 100), Wheat (wheat, winter; 125 g ai/ha, postemergence): 5
Plant response rating, Wheat (wheat, winter; Postemergence, 31 g ai/ha, 13 to 15 days): 0
Plant response rating, Wheat (wheat, winter; Postemergence, 62 g ai/ha): 0
Corn plant response rating (corn; [5]): 5
Plant response rating (0 to 100), Corn (corn; 125 g ai/ha, postemergence): 5
Plant response rating, Corn (corn; [6]): 5
Plant response rating, Corn (corn; [7]): 5
Crabgrass, Large plant response rating (large (Lg) crabgrass; [5]): 5
Plant response rating (0 to 100), Crabgrass, Large (large (Lg) crabgrass; 125 g ai/ha, postemergence): 5
Plant response rating, Crabgrass, Large (large (Lg) crabgrass; [6]): 5
Plant response rating, Crabgrass, Large (large (Lg) crabgrass; [7]): 5
Chickweed plant response rating (chickweed; [5]): 20
Plant response rating (0 to 100), Chickweed (chickweed; 125 g ai/ha, postemergence): 60
Plant response rating, Chickweed (chickweed; [6]): 50
Plant response rating, Chickweed (chickweed; [7]): 50

Clc1cnc(Oc2cccc(Br)c2-n2cc(Br)nn2)nc1 [Compound 129]
Plant response rating, Foxtail, Giant (giant foxtail; [1]): 100
Foxtail, Giant plant response rating (giant foxtail; [1]): 100
Pigweed plant response rating (pigweed; 125 g ai/ha): 100
Plant response rating, Pigweed (pigweed; 500 g ai/ha): 100
Plant response rating, Ducksalad (Heteranthera limosa): 65
Ryegrass, Italian plant response rating (Italian ryegrass; [2]): 0
Ryegrass, Italian plant response rating (Italian ryegrass; [3]): 10
Ryegrass, Italian plant response rating (Italian ryegrass; [4]): 35
Plant response rating, Ryegrass, Italian (Italian ryegrass): 0
Galium plant response rating (galium; [2]): 50
Galium plant response rating (galium; [3]): 95
Galium plant response rating (galium; [4]): 100
Plant response rating, Galium (galium): 80
Johnsongrass plant response rating (johnsongrass; [2]): 0
Johnsongrass plant response rating (johnsongrass; [3]): 40
Johnsongrass plant response rating (johnsongrass; [4]): 90
Plant response rating, Johnsongrass (johnsongrass): 10
Morningglory plant response rating (morningglory; [2]): 5
Morningglory plant response rating (morningglory; [3]): 45
Morningglory plant response rating (morningglory; [4]): 75
Plant response rating, Morningglory (morningglory): 35
Oilseed Rape plant response rating (oilseed rape; [2]): 50
Oilseed Rape plant response rating (oilseed rape; [3]): 100
Oilseed Rape plant response rating (oilseed rape; [4]): 100
Plant response rating, Oilseed Rape (oilseed rape): 85
Velvetleaf plant response rating (velvetleaf; [2]): 35
Velvetleaf plant response rating (velvetleaf; [3]): 100
Velvetleaf plant response rating (velvetleaf; [4]): 100
Plant response rating, Velvetleaf (velvetleaf): 70
Plant response rating (0 to 100), Wheat (wheat, winter; [8]): 0
Plant response rating, Wheat (wheat, winter; 125 g ai/ha, postemergence, visual rating): 5
Plant response rating, Wheat (wheat, winter; Postemergence, 62 g ai/ha): 0
Plant response rating (0 to 100), Corn (corn; [8]): 5
Plant response rating, Corn (corn; [9]): 15
Plant response rating, Corn (corn; [7]): 10
Plant response rating (0 to 100), Crabgrass, Large (large (Lg) crabgrass; [8]): 5
Plant response rating, Crabgrass, Large (large (Lg) crabgrass; [9]): 10
Plant response rating, Crabgrass, Large (large (Lg) crabgrass; [7]): 5
Plant response rating (0 to 100), Chickweed (chickweed; [8]): 50
Plant response rating, Chickweed (chickweed; [9]): 55
Plant response rating, Chickweed (chickweed; [7]): 70

— patent US9695155B2, “Herbicidal substituted pyrimidinyloxy benzene compounds” (E. I. DU PONT DE NEMOURS AND COMPANY, priority 2013, dated 2017)
